The conditions of data set [1]: in vivo; cited from earlier work.
The test system of data set [2] is obese mice fed high-fat diet. The experiment in a line: Insulin resistance and blood glucose level after oral administration to obese mice. The format is in vivo, mice (C57BL6J). Details: key to Insulin resistance / Hyperglycemia: ↓: lowering or mitigating action; ↑: increasing action; →: no change. The procedure: (§1) Six-week-old male mice (C57BL6J) were grown with high-fat diet (fat content: 60 kcal %, Research diets, Inc.) or low-fat diet (fat content: 10.5 kcal %, CLEA Japan, Inc.) for 18 weeks. Thereafter, obese mice fed high-fat diet were separated into two groups, and 0.3 mL of physiological saline was orally administered to one group through a gastric tube for mouse, and 0.3 mL of a solution of a low-molecular-weight compound dissolved in physiological saline was orally administered to the other group through the gastric tube for mouse. Oral administration was performed every day over 14 days during 30 minutes before turning lights off at 18:00 (turning lights on at 6:00, 12-hour light-dark cycle, room temperature: 22° C.). […] Thereafter, the organs were stored at −80° C. Hepatic Leprb expression was measured by means of the qRT-PCR.
6. Change in Insulin Resistance and Blood Glucose Level after Oral Administration of Low-Molecular-Weight Compound
Fasting blood glucose and blood insulin concentration after administration of physiological saline or administration of a low-molecular-weight compound were measured respectively by using an enzyme-electrode method with glucose oxidase and a mouse insulin ELISA kit (Morinaga Institute of Biological Science, Inc.). The insulin resistance of each mouse was represented as Homeostatic model assessment of insulin resistance (HOMA-IR) [insulin (mU/L)×blood glucose (mM)÷22.5] index (×100) (Brit J Nutr 101: 701-708, 2009).

The subject of data set [3] is obese mice fed high-fat diet. The data set is described as follows: Blood lipid concentration after oral administration to obese mice. Details: key to Blood LDLc / Blood HDLc: ↓: lowering or mitigating action; ↑: increasing action; →: no change. In kind it is in vivo, mice (C57BL6J). The procedure:
as §1
10. Change in Blood Lipid Concentration after Oral Administration of Low-Molecular-Weight Compound
Fasting blood CM-Tg, VLDL-Tg, LDLc, and HDLc concentrations after administration of physiological saline or administration of a low-molecular-weight compound were measured by using the LipoSEARCH method.

For a further data set, the target named is α2-adrenaline receptor. The settings on record: cited from earlier work.
Data set [4] has as its system obese mice fed high-fat diet. The experiment in a line: Hepatic lipid content after oral administration to obese mice (LipoSEARCH, BODIPY staining). The format is in vivo, mice (C57BL6J). The arrangement: key to Fatty liver: ↓: lowering or mitigating action; ↑: increasing action; →: no change. The procedure:
as §1
8. Change in Hepatic Lipid Content after Oral Administration of Low-Molecular-Weight Compound
Hepatic Tg and Chol contents after administration of physiological saline or administration of a low-molecular-weight compound were measured by using a LipoSEARCH method (Skylight Biotech, Inc.).
To visualize and quantify the amount of fat accumulated in hepatocyte per cell and change in shape of fat, fat globule fluorescent staining with BODIPY (excitation light: 493 nm; fluorescence: 503 nm) was performed. Staining-positive area and size of staining-positive cell were measured in 10 views per mouse hepatocyte in each group. ANOVA was used for intergroup significance test in FIGS. 8-D and 8-E (****. P<0.001).

Details of data set [5]: key to Body weight / Insulin resistance / Hyperglycemia / Hypertension / Blood LDLc / Blood HDLc / Fatty liver: ↓: lowering or mitigating action; ↑: increasing action; →: no change. The following applies: Table 1, *based on clinical data; cited from earlier work.
Data set [6] concerns obese mice fed high-fat diet. The experiment in a line: Daily variation of body weight with oral administration to obese mice. The format is in vivo, mice (C57BL6J). Details: key to Body weight: ↓: lowering or mitigating action; ↑: increasing action; →: no change. The procedure: as §1
4. Daily Variation of Body Weight with Oral Administration of Low-Molecular-Weight Compound
The body weight of each mouse with administration of physiological saline or administration of a low-molecular-weight compound was measured every day before each administration at 18:00.

Where [7] appears, read: Table 1, summary of obese mouse results.

In general, Ki refers to a dissociation constant, usually derived from enzyme kinetics or from competition with a known ligand.

For `NC(N)=N/N=C/c1c(Cl)cccc1Cl` [guanabenz, 2-{[(2,6-dichlorophenyl)methylidene]amino}guanidine], in data set [1], the “absorptivity from a gastrointestinal tract” value is “approximately 75%”, the half-life in blood was 4.3 to 6.4 h and the site of metabolism result was “mostly metabolized in the liver”. Also, in data set [2] (setting [7]), the Hyperglycemia entry is “↓” and the Insulin resistance result is given as “↓”. In data set [2] (obese mouse results), the “action on insulin resistance” value is on record as “ameliorates insulin resistance” and the hyperglycemia-mitigating action entry is on record as “exhibits hyperglycemia-mitigating action”. In data set [3] (setting [7]), the “Blood HDLc” value is “→” and the “Blood LDLc” value is “↓”. For the same compound, in data set [3] (obese mouse results), the “action on high LDL cholesterol” value is given as “exhibits reducing action for high LDL cholesterol”. Further, the Ki at α2-adrenaline receptor was 7 nM. Besides, in data set [4] (setting [7]), the Fatty liver result is “↓”. Moreover, the anti-fatty liver action entry in data set [4] (obese mouse results) was “with anti-fatty liver action”. In data set [5], the Hypertension result is reported as “↓*”. Further, in data set [6] (setting [7]), the Body weight entry is “↓”. Moreover, the anti-obesity action entry in data set [6] (obese mouse results) is on record as “exhibits anti-obesity action without reduction of appetite”.

The values are drawn from patent US20210330616A1, “AMELIORATING AGENT FOR OBESITY-RELATED METABOLIC DISEASE” (METABOLIC AND OBESE RESEARCH SCIENCE CORPORATION, priority 2018, published 2021).
